Source: US5356920A, “Imidazol-2-yl derivatives of substituted bicyclic compounds” (priority 1990, dated 1994)

Tests used:
[1] = biological target: T1, acyl CoA:cholesterol acyltransferase (ACAT-EC 2.3.1.26) (Oryctolagus cuniculus, UniProt A0A5F9CPP4); assay: ACAT inhibition in microsomes from atherosclerotic rabbit thoracic aorta (intima media); type: biochemical; settings: microsomes from atherosclerotic rabbit thoracic aortas; limits p = 0.95
T1 construct: microsomal preparations from atherosclerotic rabbit thoracic aorta (intima media); from tissue; host or cells: microsomes from atherosclerotic rabbit thoracic aorta (intima media)
T1 sequence (A0A5F9CPP4 1-555): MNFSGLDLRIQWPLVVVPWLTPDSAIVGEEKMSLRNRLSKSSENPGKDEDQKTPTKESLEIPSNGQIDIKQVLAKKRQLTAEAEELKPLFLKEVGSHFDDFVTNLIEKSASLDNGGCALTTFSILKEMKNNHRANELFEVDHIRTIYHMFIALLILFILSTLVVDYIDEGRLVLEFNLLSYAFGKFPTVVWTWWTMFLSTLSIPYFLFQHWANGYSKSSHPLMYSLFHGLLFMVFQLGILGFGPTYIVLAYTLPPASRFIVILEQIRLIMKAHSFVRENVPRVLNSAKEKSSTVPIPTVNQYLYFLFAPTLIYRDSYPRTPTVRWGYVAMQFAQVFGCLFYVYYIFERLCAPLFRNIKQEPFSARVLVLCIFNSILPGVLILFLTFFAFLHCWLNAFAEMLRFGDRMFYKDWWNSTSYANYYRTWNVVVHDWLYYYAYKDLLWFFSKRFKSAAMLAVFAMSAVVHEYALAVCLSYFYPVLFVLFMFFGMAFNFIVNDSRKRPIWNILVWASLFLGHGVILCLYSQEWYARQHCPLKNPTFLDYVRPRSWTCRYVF

[2] = orientative acute toxicity (LD50), single oral administration, assessed on the seventh day, mice; settings: mouse, in vivo, nine hours food deprived
Method: The toxicity of the compounds of the invention is negligible, therefore they can be safely used in therapy. Nine hours food deprived mice and rats were treated orally with single administration of increasing doses, then housed and normally fed. The orientative acute toxicity (LD50) was assessed on the seventh day after the treatment, for instance a LD50 greater than 800 mg/kg was found in mice for the compound coded as FCE 27116.

[3] = biological target: T1, acyl CoA:cholesterol acyltransferase (ACAT-EC 2.3.1.26); settings: Hudson H., Day A., Atherosclerosis (1982) 45, 109; cited from earlier work

| IC50 [1] [µM] | SMILES | LD50 at 168 h [2] [mg/kg] | inhibitory activity in vitro (rabbit arterial microsomes) [3] |
| --- | --- | --- | --- |
| 1.06 | CCCC1Oc2ccc(OCCCC(C)(C)C(=O)OCC)cc2C=C1c1nccn1C (racemic) [FCE 25184, ethyl (+-)-5-[2-propyl-3-(1-methyl-1H-imidazol-2-yl)-2H-benzopyran-6-yl]oxy-2,2-dimethylpentanoate, reference compound] | – | – |
| 0.0851 | CC(C)c1cccc(C(C)C)c1NC(=O)C(C)(C)CCCOc1ccc2c(c1)C=C(c1nccn1C)C(CCc1ccccc1)O2 (racemic) [FCE 26734, (+-)-5-[2-(2-phenylethyl)-3-(1-methyl-1H-imidazol-2-yl)-2H-1-benzopyran-6-yl]oxy-2,2-dimethyl-N-(2,6-diisopropylphenyl)pentanamide] | – | – |
| 0.0668 | CCOC(=O)C1(CCCOc2ccc3c(c2)C=C(c2nccn2C)C(CCc2ccccc2)O3)CCCC1 (racemic) [FCE 27051, ethyl (+-)-1-[3-(2-(2-phenylethyl)-3-(1-methyl-1H-imidazol-2-yl)-2H-1-benzopyran-6-yl)oxypropyl]cyclopentane-1-carboxylate] | – | – |
| 0.0822 | CC(C)c1cccc(C(C)C)c1NC(=O)C(C)(C)CCCOc1ccc2c(c1)C=C(c1nccn1C)C(CCc1ccc(F)cc1F)O2 (racemic) [FCE 27113, (+-)-5-[2-(2-(2,4-difluorophenyl)ethyl)-3-(1-methyl-1H-imidazol-2-yl)-2H-1-benzopyran-6-yl)oxy-2,2-dimethyl-N-(2,6-diisopropylphenyl)pentanamide] | – | – |
| – | CC(C)(Oc1ccc(CCNC(=O)c2ccc(Cl)cc2)cc1)C(=O)O [Bezafibrate] | – | inhibitory activity in vitro (rabbit arterial microsomes) has been already demonstrated |

| SMILES | IC50 [1] [µM] | LD50 at 168 h [2] [mg/kg] | inhibitory activity in vitro (rabbit arterial microsomes) [3] |
| --- | --- | --- | --- |
| Cn1ccnc1C1=Cc2cc(OCCCC(C)(C)C(=O)NC3CCCCC3)ccc2OC1CCc1ccc(F)cc1 (racemic) [FCE 27116, (+-)-5-[2-(2-(4-fluorophenyl)ethyl)-3-(1-methyl-1H-imidazol-2-yl)-2H-1-benzopyran-6-yl]oxy-2,2-dimethyl-N-cyclohexylpentanamide] | 0.0399 | > 800 | – |
